For data set [1], the system named is rat isolated perfused livers. The following applies: P-gp inhibitor erythromycin, ref [43]; cited from earlier work.
Data set [2] deals with human sandwich-cultured hepatocytes (SCH). The following applies: for Accumulation Cells / Accumulation Cells + Bile / BEI: + 2 µM GF120918, 1 µM [3H]digoxin 10 min or 5 µM fexofenadine 30 min.
The subject of data set [3] is perfused livers from Mrp2-deficient TR^− rats. As to the kind of experiment: In situ single-pass liver perfusion. The class given is in vivo, rat. The following applies: GF120918 coadministration.
Data set [4] deals with human OATP1B3. As to conditions: bosentan 100 µM, competitive, transfected CHO cells; ref [45]; cited from earlier work.
Data set [5] concerns human OATP1B1. As to conditions: bosentan 100 µM, competitive, transfected CHO cells; ref [45]; cited from earlier work.
Data set [6] has as its system human OATP2B1. The following applies: bosentan 100 µM, competitive, transfected CHO cells; ref [45]; cited from earlier work.

Like-named read-outs stand apart in the source and are kept apart here.

For the compound `CC[C@H]1OC(=O)[C@H](C)[C@@H](O[C@H]2C[C@@](C)(OC)[C@@H](O)[C@H](C)O2)[C@H](C)[C@@H](O[C@@H]2O[C@H](C)C[C@H](N(C)C)[C@H]2O)[C@](C)(O)C[C@@H](C)C(=O)[C@H](C)[C@@H](O)[C@]1(C)O` [erythromycin], in data set [1], the “Effect on cumulative recovery of fexofenadine in bile” value was “decreased”.
In the case of `COc1cc2c(cc1OC)CN(CCc1ccc(NC(=O)c3cccc4c(=O)c5cccc(OC)c5[nH]c34)cc1)CC2` [GF120918, N-(4-[2-(1,2,3,4-tetrahydro-6,7-dimethoxy-2-isoquinolinyl)ethyl]-phenyl)-9,10-dihydro-5-methoxy-9-oxo-4-acridine carboxamide], the “Effect on fexofenadine BEI and in vitro biliary clearance” value in data set [2] (2 µM GF120918, human SCH) was “not affected”. Moreover, in data set [2] (2 µM GF120918, human SCH, both livers), the “Effect on BEI and in vitro biliary clearance of [3H]digoxin” value is on record as “abolished completely”. Further, in data set [3], the “Fexofenadine Cl’biliary as % of control” value was 27.5 % of control.
With `C[C@H]1O[C@@H](O[C@H]2[C@@H](O)C[C@H](O[C@H]3[C@@H](O)C[C@H](O[C@H]4CC[C@@]5(C)[C@H](CC[C@@H]6[C@@H]5C[C@@H](O)[C@]5(C)[C@@H](C7=CC(=O)OC7)CC[C@]65O)C4)O[C@@H]3C)O[C@@H]2C)C[C@H](O)[C@@H]1O` [[^3H]Digoxin, digoxin], the “Accumulation Cells” value in data set [2] (Liver 1) is reported as 29.9 ± 1.6 pmol/mg; in data set [2] (Liver 1, listed as [^3H]digoxin) it was 29.9 pmol/mg; in data set [2] (Liver 2), 25.2 ± 1.6 pmol/mg. Moreover, the “Accumulation Cells + Bile” value in data set [2] (Liver 1) is 26.2 ± 0.9 pmol/mg; in data set [2] (Liver 2), 23.4 ± 2.3 pmol/mg. In addition, the BEI in data set [2] (Liver 1) and in data set [2] (Liver 2) was 0% in each case.
Regarding `COc1ccccc1Oc1c(NS(=O)(=O)c2ccc(C(C)(C)C)cc2)nc(-c2ncccn2)nc1OCCO` [bosentan], the “Inhibition of transport of model probes” value in data set [4], in data set [5] and in data set [6] was ~ 40% throughout.
